Measurements taken from US20260265689A1, “BIOHYBRID ROBOT INCLUDING RETINAL/BRAIN ORGANOID, MOTOR NERVE SPHEROID, AND MUSCLE BUNDLE, AND MANUFACTURING METHOD THEREFOR” (SOGANG UNIVERSITY RESEARCH & BUSINESS DEVELOPMENT FOUNDATION, priority 2023, published 2026).

Assays:
brain organoids = test: Electrophysiological signal measurement of retinal/brain organoid conjugates using a multi-electrode array; type: cell-based, human; details: 100 μM glutamate mixed into the co-culture medium
Method: The formation of conjugates of brain organoids and retinal organoids in Examples 1-3 above was confirmed through signal measurement using a multi-electrode array. Retinal/brain organoids were placed on electrodes of the multi-electrode array for signal measurement, and then the generation of electrophysiological signals was measured while light was applied to the retinal organoids. In addition, glutamate was added as a neurotransmitter to the co-culture medium used in the multi-electrode array, and electrophysiological signals generated from brain organoids were measured.

[1] = tested on: brain organoid of the versatile biohybrid robot; test: Movement of the versatile biohybrid robot in co-culture media; set-up: species or system human; details: brain organoid stimulated using glutamate; 0.27 cm/min before stimulation

## N[C@@H](CCC(=O)O)C(=O)O [glutamate]
Brain organoids
  electrophysiological signals generated by stimulating brain organoids: transmitted to the brain organoids
[1]
  movement of the biohybrid robot after stimulation: 0.52 cm/min
